{"source": "paper PMC5218480", "about": "(PLoS ONE, 2017)", "tested_on": "MV-4-11 cells", "assay": "Gene expression microarray analysis (Affymetrix PrimeView) and GSEA", "assay_type": "cell-based, human", "design": "RFU PODN (11730768_x_at) / Fold change /veh PODN (11730768_x_at) / RFU LINC00158 (11744669_a_at) / Fold change /veh LINC00158 (11744669_a_at) / RFU DUSP10 (11751237_a_at) / Fold change /veh DUSP10 (11751237_a_at) / RFU ID3 (11757404_x_at) / Fold change /veh ID3 (11757404_x_at) / RFU PLEKHG5 (11737974_s_at) / Fold change /veh PLEKHG5 (11737974_s_at) / RFU LRRC4B (11730491_at) / Fold change /veh LRRC4B (11730491_at) / RFU GIMAP4 (11747438_a_at) / Fold change /veh GIMAP4 (11747438_a_at) / RFU KRT8 (11758183_x_at) / Fold change /veh KRT8 (11758183_x_at) / RFU CNN1 (11734310_a_at) / Fold change /veh CNN1 (11734310_a_at) / RFU VPS37D (11726825_at) / Fold change /veh VPS37D (11726825_at) / RFU C10orf10 (11716522_x_at) / Fold change /veh C10orf10 (11716522_x_at) / RFU KIR2DL2 /// KIR2DL4 /// KIR2DL5A /// KIR2DL5B /// KIR2DS1 /// KIR2DS2 /// KIR2DS3 /// KIR2DS4 /// KIR3DL3 /// KIR3DL3 /// KIR3DS1 (11738374_at) / Fold change /veh KIR2DL2 /// KIR2DL4 /// KIR2DL5A /// KIR2DL5B /// KIR2DS1 /// KIR2DS2 /// KIR2DS3 /// KIR2DS4 /// KIR3DL3 /// KIR3DL3 /// KIR3DS1 (11738374_at) / RFU C1QL1 (11718748_at) / Fold change /veh C1QL1 (11718748_at) / RFU TMPRSS4 (11747572_a_at) / Fold change /veh TMPRSS4 (11747572_a_at) / RFU HAMP (11756126_x_at) / Fold change /veh HAMP (11756126_x_at) / RFU RNFT2 (11725882_a_at) / Fold change /veh RNFT2 (11725882_a_at) / RFU NR4A2 (11747474_a_at) / Fold change /veh NR4A2 (11747474_a_at) / RFU ABCC12 (11746883_a_at) / Fold change /veh ABCC12 (11746883_a_at) / RFU TMEM136 (11760407_x_at) / Fold change /veh TMEM136 (11760407_x_at) / RFU CLDN22 /// WWC2 (11732394_at) / Fold change /veh CLDN22 /// WWC2 (11732394_at) / RFU HLA-DPB1 (11760878_x_at) / Fold change /veh HLA-DPB1 (11760878_x_at) / RFU SPINT1 (11716480_a_at) / Fold change /veh SPINT1 (11716480_a_at) / RFU GAP43 (11754022_s_at) / Fold change /veh GAP43 (11754022_s_at) / RFU A4GNT (11735810_at) / Fold change /veh A4GNT (11735810_at) / RFU PRB3 (11715151_x_at) / Fold change /veh PRB3 (11715151_x_at) / RFU TUBB4B (11761932_at) / Fold change /veh TUBB4B (11761932_at) / RFU CAPN14 (11732068_a_at) / Fold change /veh CAPN14 (11732068_a_at) / RFU TMCC2 (11721928_a_at) / Fold change /veh TMCC2 (11721928_a_at) / RFU IRGQ (11745062_a_at) / Fold change /veh IRGQ (11745062_a_at) / RFU FAM174B (11720279_a_at) / Fold change /veh FAM174B (11720279_a_at) / RFU TMPRSS4 (11748680_a_at) / Fold change /veh TMPRSS4 (11748680_a_at) / RFU FAM212B (11763350_a_at) / Fold change /veh FAM212B (11763350_a_at) / RFU PLEKHG5 (11743358_a_at) / Fold change /veh PLEKHG5 (11743358_a_at) / RFU ZSCAN30 (11745921_a_at) / Fold change /veh ZSCAN30 (11745921_a_at) / RFU CMKLR1 (11741424_a_at) / Fold change /veh CMKLR1 (11741424_a_at) / RFU LOC101060620 /// MAPK8IP1 (11723275_at) / Fold change /veh LOC101060620 /// MAPK8IP1 (11723275_at) / RFU SPTSSB (11747773_x_at) / Fold change /veh SPTSSB (11747773_x_at) / RFU PRSS12 (11739890_at) / Fold change /veh PRSS12 (11739890_at) / RFU BIN1 (11741810_x_at) / Fold change /veh BIN1 (11741810_x_at) / RFU WNT11 (11732464_a_at) / Fold change /veh WNT11 (11732464_a_at) / RFU C10orf10 (11716521_a_at) / Fold change /veh C10orf10 (11716521_a_at) / RFU C5orf56 (11738089_at) / Fold change /veh C5orf56 (11738089_at) / RFU CYB561 (11721691_x_at) / Fold change /veh CYB561 (11721691_x_at) / RFU ANKRD19P (11752326_a_at) / Fold change /veh ANKRD19P (11752326_a_at) / RFU OR2T12 /// OR2T33 /// OR2T8 (11738714_s_at) / Fold change /veh OR2T12 /// OR2T33 /// OR2T8 (11738714_s_at) / RFU VCAN (11748164_a_at) / Fold change /veh VCAN (11748164_a_at) / RFU JSRP1 (11732532_at) / Fold change /veh JSRP1 (11732532_at) / RFU KRTAP10-11 (11738290_x_at) / Fold change /veh KRTAP10-11 (11738290_x_at) / RFU MYO3A (11730013_a_at) / Fold change /veh MYO3A (11730013_a_at) / RFU EBF3 (11725865_a_at) / Fold change /veh EBF3 (11725865_a_at) / RFU CAMK2N1 (11719241_x_at) / Fold change /veh CAMK2N1 (11719241_x_at) / RFU C5orf56 (11738088_a_at) / Fold change /veh C5orf56 (11738088_a_at) / RFU OLFML3 (11715873_a_at) / Fold change /veh OLFML3 (11715873_a_at) / RFU LOC100653217 /// NTM (11731650_a_at) / Fold change /veh LOC100653217 /// NTM (11731650_a_at) / RFU MAPK11 (11762145_a_at) / Fold change /veh MAPK11 (11762145_a_at) / RFU FIZ1 (11724087_x_at) / Fold change /veh FIZ1 (11724087_x_at) / RFU OASL (11726364_x_at) / Fold change /veh OASL (11726364_x_at) / RFU SOX15 (11748057_x_at) / Fold change /veh SOX15 (11748057_x_at) / RFU CD79A (11719716_a_at) / Fold change /veh CD79A (11719716_a_at) / RFU HIST1H1D (11736915_at) / Fold change /veh HIST1H1D (11736915_at) / RFU CASKIN2 (11723855_a_at) / Fold change /veh CASKIN2 (11723855_a_at) / RFU LOC730098 (11760151_x_at) / Fold change /veh LOC730098 (11760151_x_at) / RFU OR4N2 (11742367_at) / Fold change /veh OR4N2 (11742367_at) / RFU PRRT2 (11749266_a_at) / Fold change /veh PRRT2 (11749266_a_at) / RFU SNX32 (11753110_a_at) / Fold change /veh SNX32 (11753110_a_at) / RFU CDHR5 (11726645_a_at) / Fold change /veh CDHR5 (11726645_a_at) / RFU RCAN1 (11760418_a_at) / Fold change /veh RCAN1 (11760418_a_at) / RFU FAM167A (11723789_a_at) / Fold change /veh FAM167A (11723789_a_at) / RFU FAM26E (11764081_at) / Fold change /veh FAM26E (11764081_at) / RFU ISYNA1 (11749810_s_at) / Fold change /veh ISYNA1 (11749810_s_at) / RFU ACY1 (11761880_at) / Fold change /veh ACY1 (11761880_at) / RFU 11764098_at / Fold change /veh 11764098_at / RFU SAMD14 (11745864_x_at) / Fold change /veh SAMD14 (11745864_x_at) / RFU NPB (11741838_a_at) / Fold change /veh NPB (11741838_a_at) / RFU TMPRSS6 (11731388_a_at) / Fold change /veh TMPRSS6 (11731388_a_at) / RFU KRTAP10-2 (11738614_at) / Fold change /veh KRTAP10-2 (11738614_at) / RFU ARHGAP8 /// PRR5-ARHGAP8 (11727945_x_at) / Fold change /veh ARHGAP8 /// PRR5-ARHGAP8 (11727945_x_at) / RFU KRTAP5-7 /// NADSYN1 (11734609_at) / Fold change /veh KRTAP5-7 /// NADSYN1 (11734609_at) / RFU RASL12 (11751679_a_at) / Fold change /veh RASL12 (11751679_a_at) / RFU CDKN2B (11736163_a_at) / Fold change /veh CDKN2B (11736163_a_at) / RFU PRF1 (11729649_at) / Fold change /veh PRF1 (11729649_at) / RFU, ZNF638 /// ZNF638-IT1 / Fold change vs veh, ZNF638 /// ZNF638-IT1 / RFU, PANK3 / Fold change vs veh, PANK3 / RFU, SH3YL1 / Fold change vs veh, SH3YL1 / RFU, ZEB2 / Fold change vs veh, ZEB2 / RFU, NRIP1 / Fold change vs veh, NRIP1 / RFU, PTTG1IP / Fold change vs veh, PTTG1IP / RFU, CAPN2 / Fold change vs veh, CAPN2 / RFU, MED14 / Fold change vs veh, MED14 / RFU, SNORA58 / Fold change vs veh, SNORA58 / RFU, C1orf63 / Fold change vs veh, C1orf63 / RFU, LRRFIP1 / Fold change vs veh, LRRFIP1 / RFU, NDUFAF7 / Fold change vs veh, NDUFAF7 / RFU, SLC12A2 / Fold change vs veh, SLC12A2 / RFU, IBTK / Fold change vs veh, IBTK / RFU, ESF1 / Fold change vs veh, ESF1 / Fold change vs veh, TMEM50B / RFU, TAOK1 / Fold change vs veh, TAOK1 / RFU, ACBD3 / Fold change vs veh, ACBD3 / RFU, TMA16 / Fold change vs veh, TMA16 / RFU, RWDD3 / Fold change vs veh, RWDD3 / RFU, BCAT1 / Fold change vs veh, BCAT1 / RFU, EDEM3 / Fold change vs veh, EDEM3 / RFU, TMEM33 / Fold change vs veh, TMEM33 / RFU, WDR75 / Fold change vs veh, WDR75 / RFU, AHCTF1 / Fold change vs veh, AHCTF1 / RFU, TFRC / Fold change vs veh, TFRC / RFU, ZDHHC17 / Fold change vs veh, ZDHHC17 / RFU, NOM1 / Fold change vs veh, NOM1 / RFU, ARL8B / Fold change vs veh, ARL8B / RFU, ZBTB11 / Fold change vs veh, ZBTB11 / RFU, TAMM41 / Fold change vs veh, TAMM41 / RFU, KIAA1704 /// LOC100996395 / Fold change vs veh, KIAA1704 /// LOC100996395 / RFU, ING1 / Fold change vs veh, ING1 / RFU, TRMT61B / Fold change vs veh, TRMT61B / RFU, FUBP3 / Fold change vs veh, FUBP3 / RFU, TP53 / Fold change vs veh, TP53 / RFU, TNKS2 / Fold change vs veh, TNKS2 / RFU, ZFP14 / Fold change vs veh, ZFP14 / RFU, ACTR2 / Fold change vs veh, ACTR2 / RFU, PPP3R1 / Fold change vs veh, PPP3R1 / RFU, PIK3R1 / Fold change vs veh, PIK3R1 / RFU, HNRNPA1 / Fold change vs veh, HNRNPA1 / RFU, RNF170 / Fold change vs veh, RNF170 / RFU, ZNF28 / Fold change vs veh, ZNF28 / RFU, RNGTT / Fold change vs veh, RNGTT / RFU, OGT / Fold change vs veh, OGT / RFU, BRD1 / Fold change vs veh, BRD1 / RFU, MARS / Fold change vs veh, MARS / RFU, ZNF655 / Fold change vs veh, ZNF655 / RFU, FAHD1 / Fold change vs veh, FAHD1 / RFU, BDP1 / Fold change vs veh, BDP1 / RFU, LRRCC1 / Fold change vs veh, LRRCC1 / RFU, ARID1A / Fold change vs veh, ARID1A / RFU, ZNF146 / Fold change vs veh, ZNF146 / RFU, ZNF330 / Fold change vs veh, ZNF330 / RFU, GPN3 / Fold change vs veh, GPN3 / RFU, C9orf123 / Fold change vs veh, C9orf123 / RFU, N4BP2L2 / Fold change vs veh, N4BP2L2 / RFU, ARFIP1 / Fold change vs veh, ARFIP1 / RFU, FAM179B / Fold change vs veh, FAM179B / RFU, BCL10 / Fold change vs veh, BCL10 / RFU, UHRF1BP1L / Fold change vs veh, UHRF1BP1L / RFU, BET1 / Fold change vs veh, BET1 / RFU, CNOT2 / Fold change vs veh, CNOT2 / RFU, ZNF268 / Fold change vs veh, ZNF268 / Fold change vs veh, ZNF507 / RFU, DGCR2 / Fold change vs veh, DGCR2 / RFU, WDSUB1 / Fold change vs veh, WDSUB1 / Fold change vs veh, HSP90B1 /// MIR3652 / RFU, ADSS / Fold change vs veh, ADSS / RFU, GK / Fold change vs veh, GK / RFU, ZNF148 / Fold change vs veh, ZNF148 / RFU, TAF9 / Fold change vs veh, TAF9 / RFU, SLC1A5 / Fold change vs veh, SLC1A5 / RFU, SLMO2 / Fold change vs veh, SLMO2 / RFU, ABCC4 / Fold change vs veh, ABCC4 / RFU, LOC101060439 /// RAP1B / Fold change vs veh, LOC101060439 /// RAP1B / RFU, RFX7 / Fold change vs veh, RFX7 / RFU, GTPBP10 / Fold change vs veh, GTPBP10 / RFU, CNEP1R1 / Fold change vs veh, CNEP1R1 / RFU, BIVM-ERCC5 /// ERCC5 / Fold change vs veh, BIVM-ERCC5 /// ERCC5 / RFU, ILF3 / Fold change vs veh, ILF3 / RFU 11762660_at / Fold change /veh 11762660_at / RFU VCAN (11757783_s_at) / Fold change /veh VCAN (11757783_s_at) / RFU DDX43 (11728927_at) / Fold change /veh DDX43 (11728927_at) / RFU KRT8 (11758188_x_at) / Fold change /veh KRT8 (11758188_x_at) / RFU NKD1 (11759106_at) / Fold change /veh NKD1 (11759106_at) / RFU SRD5A1 (11742802_a_at) / Fold change /veh SRD5A1 (11742802_a_at) / RFU TPSAB1 /// TPSB2 (11721975_s_at) / Fold change /veh TPSAB1 /// TPSB2 (11721975_s_at) / RFU GSTM3 (11746129_a_at) / Fold change /veh GSTM3 (11746129_a_at) / RFU IL23R (11737362_x_at) / Fold change /veh IL23R (11737362_x_at) / RFU TMEM51 (11727254_a_at) / Fold change /veh TMEM51 (11727254_a_at) / RFU PIWIL2 (11732686_x_at) / Fold change /veh PIWIL2 (11732686_x_at) / RFU ORM1 (11744905_x_at) / Fold change /veh ORM1 (11744905_x_at) / RFU CCDC152 (11743942_at) / Fold change /veh CCDC152 (11743942_at) / RFU ECM1 (11717891_a_at) / Fold change /veh ECM1 (11717891_a_at) / RFU IL23R (11748794_a_at) / Fold change /veh IL23R (11748794_a_at) / RFU TNFAIP8L3 (11732012_x_at) / Fold change /veh TNFAIP8L3 (11732012_x_at) / RFU MBOAT4 (11741988_at) / Fold change /veh MBOAT4 (11741988_at) / RFU 11764193_at / Fold change /veh 11764193_at / RFU TMEM53 (11763286_at) / Fold change /veh TMEM53 (11763286_at) / RFU MAGEB2 (11727129_at) / Fold change /veh MAGEB2 (11727129_at) / RFU TMEM200A (11744735_a_at) / Fold change /veh TMEM200A (11744735_a_at) / RFU CCDC152 (11751479_a_at) / Fold change /veh CCDC152 (11751479_a_at) / RFU FAM211A (11726209_a_at) / Fold change /veh FAM211A (11726209_a_at) / RFU RGS16 (11746705_a_at) / Fold change /veh RGS16 (11746705_a_at) / RFU VCAN (11755009_s_at) / Fold change /veh VCAN (11755009_s_at) / RFU RHOB (11743442_s_at) / Fold change /veh RHOB (11743442_s_at) / RFU RGS16 (11720943_a_at) / Fold change /veh RGS16 (11720943_a_at) / RFU RGS16 (11720944_at) / Fold change /veh RGS16 (11720944_at) / RFU, VPS4B / Fold change vs veh, VPS4B / RFU, CREB1 / Fold change vs veh, CREB1 / RFU, DNAJC13 / Fold change vs veh, DNAJC13 / RFU, GNAQ / Fold change vs veh, GNAQ / RFU, CDK5R1 / Fold change vs veh, CDK5R1 / RFU, ZRANB3 / Fold change vs veh, ZRANB3 / RFU, CUL4A / Fold change vs veh, CUL4A / RFU, CCNY / Fold change vs veh, CCNY / RFU, UFL1 / Fold change vs veh, UFL1 / RFU, COG3 / Fold change vs veh, COG3 / RFU, DIAPH2 / Fold change vs veh, DIAPH2 / RFU, SKA2 / Fold change vs veh, SKA2 / RFU, AFF3 / Fold change vs veh, AFF3 / RFU, LMF1 / Fold change vs veh, LMF1 / RFU, IPO11 / Fold change vs veh, IPO11 / RFU, DFFB / Fold change vs veh, DFFB / RFU, FOXP1 / Fold change vs veh, FOXP1 / RFU, CARD8 / Fold change vs veh, CARD8 / RFU, STRN3 / Fold change vs veh, STRN3 / RFU, ADK / Fold change vs veh, ADK / RFU, RASSF2 / Fold change vs veh, RASSF2 / RFU, WIPF1 / Fold change vs veh, WIPF1 / RFU, LARP1B / Fold change vs veh, LARP1B / RFU, RASA1 / Fold change vs veh, RASA1 / RFU, RB1 / Fold change vs veh, RB1 / RFU, PPFIA1 / Fold change vs veh, PPFIA1 / RFU, MAT2A / Fold change vs veh, MAT2A / RFU, CCT5 / Fold change vs veh, CCT5 / RFU, WDR92 / Fold change vs veh, WDR92 / RFU, CUX1 / Fold change vs veh, CUX1 / RFU, TTC7A / Fold change vs veh, TTC7A / RFU, TMEM135 / Fold change vs veh, TMEM135 / RFU, DEPTOR / Fold change vs veh, DEPTOR / RFU, CPM / Fold change vs veh, CPM / RFU, DNAJB6 / Fold change vs veh, DNAJB6 / RFU, CACNA2D3 / Fold change vs veh, CACNA2D3 / RFU, DTX4 / Fold change vs veh, DTX4 / RFU, TFCP2 / Fold change vs veh, TFCP2 / RFU, GMCL1 /// GMCL1P1 / Fold change vs veh, GMCL1 /// GMCL1P1 / RFU, AEBP2 / Fold change vs veh, AEBP2 / RFU, SNHG1 /// SNORD22 /// SNORD25 /// SNORD26 /// SNORD27 /// SNORD28 /// SNORD29 /// SNORD31 / Fold change vs veh, SNHG1 /// SNORD22 /// SNORD25 /// SNORD26 /// SNORD27 /// SNORD28 /// SNORD29 /// SNORD31 / Fold change (Aza/veh), C12orf56 (ProbeSet 11735607_a_at) / Fold change (ACY-1035/veh), C12orf56 (ProbeSet 11735607_a_at) / Fold change (Aza/veh), FGFR1OP (ProbeSet 11751329_s_at) / Fold change (ACY-1035/veh), FGFR1OP (ProbeSet 11751329_s_at) / Fold change (Aza/veh), VPS36 (ProbeSet 11739960_a_at) / Fold change (ACY-1035/veh), VPS36 (ProbeSet 11739960_a_at) / RFU SYPL1 (11715823_x_at) / Fold change /veh SYPL1 (11715823_x_at) / RFU IGFBP7 (11715501_s_at) / Fold change /veh IGFBP7 (11715501_s_at) / RFU REEP3 (11722064_at) / Fold change /veh REEP3 (11722064_at) / RFU IGLL1 (11728026_x_at) / Fold change /veh IGLL1 (11728026_x_at): dose or concentration left out as unconfirmed", "details": "MV-4-11 cells, 48 hours"}
{"compound": "Nc1ncn([C@@H]2O[C@H](CO)[C@@H](O)[C@H]2O)c(=O)n1", "note": "[azacitidine]", "values": [{"measurement": "RFU C5orf56 (11738088_a_at)", "value": 66.32, "unit": "RFU"}]}
